# Publication PMC8175350, “Drug repurposing screens identify chemical entities for the development of COVID-19 interventions” (Nature Communications, 2021)
# Where “and” joins values, the source holds several entries; their conditions need not be identical. Identical values can stand only once. Like-named read-outs stand apart in the source and are kept apart here.
# Assays:
# [1] = system: Calu-3 cells; experiment: Uninfected Calu-3 48 h Cell-Titer Glo cytotoxicity counter screen; settings: for cytotox: Calu-3, replicate wells n=1-3
# [2] = system: SARS-CoV-2; experiment: microbe, parasite or virus in culture; assay type: cell-based; settings: for TOA: HeLa-ACE2, replicate wells n=1-3
# [3] = Uninfected HeLa-ACE2 24 h live/dead cytotoxicity counter screen; assay type: cell-based, human; settings: human, uninfected HeLa-ACE2 cells
# [4] = system: HeLa-ACE2 cells; experiment: as above; assay type: cell-based, human; settings: for cytotox: HeLa-ACE2, replicate wells n=1-3
# [5] = system: HEK293T; experiment: HEK293T 72 h CellTiter-Glo cytotoxicity; settings: 72 h
# [6] = in vitro; settings: human, Calu-3 uninfected cytotoxicity CC50 GeoMean
# [7] = system: SARS-CoV-2; experiment: microbe, parasite or virus in culture; assay type: cell-based; settings: for %infected: Calu-3, replicate wells n=1-3
# [8] = system: HepG2; experiment: HepG2 72 h CellTiter-Glo cytotoxicity; settings: 72 h
# [9] = system: HeLa-ACE2 cells; experiment: Total cell count in the HeLa-ACE2 TOA assay; assay type: cell-based; settings: Homo sapiens
# Source text: Supplement 41467_2021_23328_MOESM3_ESM.xlsx, sheet "Table S1" | column: HeLa-ACE2 TOA cell count
# [10] = system: SARS-CoV-2; experiment: microbe, parasite or virus in culture; assay type: cell-based; settings: for %infected: HeLa-ACE2, replicate wells n=1-3
# [11] = system: HeLa-ACE2 cells; experiment: cells; settings: Homo sapiens
# [12] = system: Calu-3 cells; experiment: cells; settings: Homo sapiens
# [13] = Uninfected Calu-3 48 h Cell-Titer Glo cytotoxicity counter screen; settings: human, uninfected Calu-3 cells, cytotoxicity CC50, uninfected Calu-3, geomean
# [14] = curve plateau at infinite concentration
compound,measurement,setting,value
CCC(CC)COC(=O)[C@H](C)NP(=O)(OC[C@H]1O[C@@](C#N)(c2ccc3c(N)ncnn23)[C@H](O)[C@@H]1O)Oc1ccccc1 (stereo partly drawn) [Remdesivir - control],Calu-3 uninfected cytotoxicity Sinf Average,[1]; [14],-100%
same,Emax,"[2]; Severe acute respiratory syndrome coronavirus 2, HeLa-ACE2, 10 h, curve plateau at infinite concentration, read-out: HeLa-ACE2 TOA CoV-2 Sinf Average",101%
same,EC50,"[2]; Severe acute respiratory syndrome coronavirus 2, HeLa-ACE2, read-out: HeLa-ACE2 TOA CoV-2 EC50 GeoMean",770 nM
same,CC50 at 24 h,[3]; read-out: HeLa-ACE2 uninfected cytotoxicity CC50 GeoMean,> 9670 nM
same,HeLa-ACE2 uninfected cytotoxicity Sinf Average,[4]; [14],-98%
same,HEK293T 72-hour cytotoxicty Sinf Average,[5],-95%
same,CC50,[6],> 30000 nM
same,Emax,"[7]; Severe acute respiratory syndrome coronavirus 2, Calu-3, 48 h, curve plateau at infinite concentration, read-out: Calu-3 CoV-2 Sinf Average",100%
same,EC50,"[7]; Severe acute respiratory syndrome coronavirus 2, Calu-3, detail column, read-out: Calu-3 CoV-2 EC50 GeoMean",444 nM
same,HepG2 72-hour cytotoxicity Sinf Average,[8],-100%
same,Emax,"[9]; HeLa-ACE2, 10 h, curve plateau at infinite concentration, read-out: HeLa-ACE2 TOA cell count Sinf Average",100%
same,EC50,"[9]; HeLa-ACE2, read-out: HeLa-ACE2 TOA cell count EC50 GeoMean",> 2400 nM
same,Emax,"[10]; Severe acute respiratory syndrome coronavirus 2, HeLa-ACE2, 24 h, curve plateau at infinite concentration, read-out: HeLa-ACE2 CoV-2 Sinf Average",100%
same,EC50,"[10]; Severe acute respiratory syndrome coronavirus 2, HeLa-ACE2, detail column, read-out: HeLa-ACE2 CoV-2 EC50 GeoMean",0.123 µM
same,Emax,"[11]; HeLa-ACE2, 24 h, read-out: HeLa-ACE2 cell count Sinf Average",-42%
same,EC50,"[11]; HeLa-ACE2, read-out: HeLa-ACE2 cell count EC50 GeoMean",> 1200 nM
same,Emax,"[12]; Calu-3, 48 h, read-out: Calu-3 cell count Sinf Average",101%
same,EC50,"[12]; Calu-3, read-out: Calu-3 cell count EC50 GeoMean",537 nM
COc1ccc(C[C@H](N)C(=O)N[C@H]2[C@@H](O)[C@H](n3cnc4c(N(C)C)ncnc43)O[C@@H]2CO)cc1 [Puromycin],cytotox,[1]; concentration log[M] -4.52288,-100.931 and -99.9022 and -95.4488 and -97.7263 and -96.8224 and -101.443 and -97.7214 and -100.308 and -97.0229
same,cytotox,[1]; concentration log[M] -5,-80.4262 and -81.4732 and -68.7172 and -83.9318 and -82.4069 and -88.2536 and -90.1262 and -91.0255 and -86.7764
same,cytotox,[1]; concentration log[M] -5.47712,-21.5211 and -21.4754 and -12.3695 and -29.1257 and -36.4975 and -41.3268 and -49.2553 and -54.1555 and -56.8603
same,cytotox,[1]; concentration log[M] -5.95424,-2.83 and -11.281 and -7.043 and -17.8087 and -13.674 and -31.1214 and -23.8075 and -33.8515 and -29.7354
same,cytotox,[1]; concentration log[M] -6.43136,2.078 and 1.682 and 8.441 and -6.555 and 0.06053 and -11.5086 and -12.2093 and -0.8504 and -4.056
same,cytotox,[1]; concentration log[M] -6.90848,3.604 and 1.518 and 9.871 and 2.227 and 16.0597 and -0.8904 and 5.168 and 1.586 and 4.2472
same,cytotox,[1]; concentration log[M] -7.38561,8.858 and -2.4064 and 3.577 and 15.479 and 1.71 and -0.4894 and 11.4275 and 7.753 and 11.1753
same,cytotox,[1]; concentration log[M] -7.86273,1.729 and -14.6095 and -2.223 and 9.032 and 7.858 and -12.5661 and -1.561 and 2.663 and 8.58
same,CC50 at 48 h,[13],3950 nM
same,TOA,[2]; concentration log[M] -5.017,-102.365 and -102.878 and -104.791 and -98.49 and -99.8269 and -99.8889 and -98.5459 and -89.5564 and -100
same,TOA,[2]; concentration log[M] -5.4942,-102.562 and -103.725 and -107.111 and -95.8769 and -99.8786 and -99.7495 and -98.3444 and -97.4941 and -99.8965
same,TOA,[2]; concentration log[M] -5.9713,-102.27 and -103.614 and -103.314 and -96.7138 and -100 (3×) and -98.3433 and -92.9164
same,TOA,[2]; concentration log[M] -6.4484,-6.41 and -22.1743 and -1.526 and -76.305 and -86.1829 and -83.03 and -58.994 and -58.9112 and -89.0793
same,TOA,[2]; concentration log[M] -6.9255,-12.6152 and -14.5357 and 3.304 and -16.4877 and -30.7409 and -13.5207 and -8.881 and -3.253 and -32.0225
same,TOA,[2]; concentration log[M] -7.4026,-1.409 and 2.055 and 2.822 and -9.903 and -4.893 and -5.119 and -5.9163 and -2.505 and -5.006
same,TOA,[2]; concentration log[M] -7.8798,-0.7005 and -1.372 and 4.453 and -4.998 and -0.516 and 2.028 and -14.3841 and -2.585 and -13.6565
same,EC50,"[2]; Severe acute respiratory syndrome coronavirus 2, HeLa-ACE2, fixed 10 hpi, geomean, read-out: CoV-2 TOA EC50",316 nM
same,CC50 at 24 h,"[3]; geomean, read-out: uninfected HeLa-ACE2 cytotoxicity CC50",658 nM
same,cytotox,[4]; concentration log[M] -4.39794,-100 (5×) and -99.957 and -100.055 and -99.8917 and -99.5551
same,cytotox,[4]; concentration log[M] -4.87506,-100 (5×) and -100.043 and -100.055 and -99.8917 and -99.8888
same,cytotox,[4]; concentration log[M] -5.35218,-99.2405 and -100.043 and -100 and -99.7082 and -99.8513 and -99.7143 and -99.834 and -99.8917 and -99.8888
same,cytotox,[4]; concentration log[M] -5.8293,-94.5992 and -94.54 and -94.2197 and -97.5201 and -91.5242 and -94.1429 and -95.9602 and -98.5916 and -99.2214
same,cytotox,[4]; concentration log[M] -6.30643,-16.5401 and -18.2717 and -10.2395 and -53.9023 and -53.9033 and -44.2857 and -37.078 and -52.3294 and -37.5973
same,cytotox,[4]; concentration log[M] -6.78355,-2.194 and 3.482 and 5.615 and -5.9081 and 6.4684 and -6.286 and -2.656 and 2.0585 and 1.78
same,cytotox,[4]; concentration log[M] -7.26067,9.198 and 8.212 and 13.6251 and -16.9949 and 6.9145 and -11.5714 and 1.66 and 4.117 and 13.2369
same,cytotox,[4]; concentration log[M] -7.73779,5.148 and 2.193 and 2.395 and 7.367 and 9.294 and 9.714 and 11.1787 and -1.625 and 6.897
same,%infected,[7]; concentration log[M] -5,-95.8583% and -98.0315% and -98.6862% and -95.9501% and -76.0417% and -82.6326% and -93.9332% and -99.6609% and -93.5404%
same,%infected,[7]; concentration log[M] -5.47712,-67.9332% and -73.9862% and -77.2001% and -69.7882% and -47.5028% and -51.8982% and -50.0755% and -50.9352% and -58.0559%
same,%infected,[7]; concentration log[M] -5.95424,-28.7555% and -23.4276% and -35.8088% and -33.2702% and 12.7351% and -26.1199% and 1.582% and -3.868% and -16.5101%
same,%infected,[7]; concentration log[M] -6.43136,-8.682% and 16.1023% and -10.697% and 2.701% and -30.2762% and -2.034% and 9.733% and 3.624% and 18.0604%
same,%infected,[7]; concentration log[M] -6.90849,14.8237% and -16.8235% and 10.3561% and -2.261% and -10.1676% and -3.437% and 1.061% and 10.2779% and -14.1014%
same,%infected,[7]; concentration log[M] -7.38561,9.109% and 11.8626% and -0.1312% and 10.7467% and -22.0858% and 7.736% and -8.662% and -8.078% and 8.576%
same,%infected,[7]; concentration log[M] -7.86273,-4.7462% and 13.3419% and -1.416% and -3.878% and 20.4436% and -1.961% and -6.536% and -8.873% and -15.4821%
same,%infected,[7]; concentration log[M] -8.33985,2.5816% and -20.6025% and -3.165% and -4.091% and -15.6383% and 9.983% and 19.7898% and 7.961% and 5.366%
same,EC50,"[7]; Severe acute respiratory syndrome coronavirus 2, Calu-3, Calu-3, geomean, read-out: SARS-CoV-2 EC50",2740 nM
same,EC50,"[10]; HeLa-ACE2, individual values of 9 independent experiments, read-out: EC50 (µM), Fig 1c",0.435 µM and 0.38 µM and 0.598 µM and 0.621 µM and 0.45 µM and 0.531 µM and 0.521 µM and 0.566 µM and 0.31 µM
same,%infected,[10]; concentration log[M] -5.017,-100.174% and -66.1982% and -101.885% and -101.158% and -100.229% and -100.414% and -100.159% and -100.524% and -100%
same,%infected,[10]; concentration log[M] -5.4942,-100.174% and -93.9019% and -89.6683% and -95.454% and -98.8405% and -100.414% and -93.5473% and -100.524% and -98.8065%
same,%infected,[10]; concentration log[M] -5.9713,-100.174% and -98.3678% and -99.6425% and -99.9897% and -99.6057% and -100.414% and -99.8612% and -100.183% and -99.7407%
same,%infected,[10]; concentration log[M] -6.4484,1.313%
same,EC50,"[10]; Severe acute respiratory syndrome coronavirus 2, HeLa-ACE2, HeLa-ACE2, MOI 0.09, read-out: EC50",0.52 µM
same,EC50,"[10]; Severe acute respiratory syndrome coronavirus 2, HeLa-ACE2, HeLa-ACE2, MOI 0.26, read-out: EC50",0.433 µM
same,EC50,"[10]; Severe acute respiratory syndrome coronavirus 2, HeLa-ACE2, HeLa-ACE2, MOI 0.51, read-out: EC50",0.43 µM
same,EC50,"[10]; Severe acute respiratory syndrome coronavirus 2, HeLa-ACE2, HeLa-ACE2, MOI 1.1, read-out: EC50",0.431 µM
same,EC50,"[10]; Severe acute respiratory syndrome coronavirus 2, HeLa-ACE2, HeLa-ACE2, MOI 2.2, read-out: EC50",0.455 µM
same,EC50,"[10]; Severe acute respiratory syndrome coronavirus 2, HeLa-ACE2, HeLa-ACE2, geomean, read-out: SARS-CoV-2 EC50",0.48 µM
same,EC50,"[11]; HeLa-ACE2, read-out: cell count in infection assay EC50, HeLa-ACE2, geomean, ^↑ = increasing dose-response curve",1550 nM
same,EC50,"[12]; Calu-3, read-out: cell count EC50, Calu-3, geomean, ^↑ = increasing dose-response curve",> 10000 nM
